Measurements: patent US7803982B2, “T1R3 transgenic animals, cells and related methods” (The Mount Sinai School of Medicine of New York University, priority 2001, dated 2010)
Entries after “also recorded” stand apart in the source; their conditions may differ. Counter-ions that a name gives are not always drawn.

Key:
Format in all cases: in vivo, mouse
[1] = test system: glossopharyngeal (GL) nerve of T1R3 knock-out and B6 wild-type mice; experiment: Whole-nerve recording from the glossopharyngeal (GL) nerve on lingual application of tastants; settings: for GL responses of T1R3 knock-out mice compared with B6 wild-type mice: integrated response normalized to 100 mM NH4Cl
Procedure: (§1) The general linear model for repeated measurements analysis was used to compare the responses of T1R3 knock-out, B6 wild-type and 129 wild-type mice, with tastant concentration as dependant variables and genotype as fixed factor. For each compound, the responses from all concentrations were analyzed together, the response from each concentration being treated as a single value for the multiple measurement analysis. For behavioral tests, the F value is given for comparison of all genotypes. When a significant difference was found, the Tukey's test was used to determine which means differed. P values from the Tukey's test are given for T1R3 knock-out vs. B6 and for T1R3 knock-out vs. 129. When this analysis gave a borderline p value (0.05<p<0.06) each concentration was analyzed individually using the general linear model univariate analysis. For CT and GL nerve responses to glucose, maltose and sucralose the general linear model univariate analysis was used because only one concentration was tested for each of these tastants.
(§2) To examine the contributions of the gustatory nerves to the behavioral responses, we recorded from the chorda tympani (CT) branch of the facial nerve and the glossopharyngeal (GL) nerve of T1R3 knock-out and B6 wild-type mice. Recordings of electrical impulses from the chorda tympani (CT) and the glossopharyngeal (GL) nerves were performed according to known methods (Kawai, K. et al., Proc. Nat'l. Acad. Sci. USA, 97: 11044 (2000)). Male and female mice were used. Tastants were applied at a regular flow rate to the tongue for 30 seconds (CT) or 60 seconds (GL). Tastant concentrations are listed below:
(§3) At 5, 10, 15, 20 and 25 seconds (for the CT) and 5, 10, 20, 30 and 40 seconds (for the GL) after stimulus onset the integrated response magnitudes to each stimulus were measured in the chart records as magnitudes of pen deflection (mm) from baseline (before stimulation) and averaged. These averages were normalized to the response to NH4Cl and analyzed with the General Linear Model Multiple Measures of SPSS with tastant concentrations provided to subjects as “variables” and genotype differences between subjects as “factor”. The single concentrations (see FIG. 14) used for the sugars, sorbitol and saccharin were chosen to be in the midrange of CT responses of C57BL6 mice based on previous studies (Ninomiya, Y. and Imoto, T., Am J. Physiol., 268: R1019 (1995); Ninomiya, Y. et al., Am J. Physiol., 269: R930 (1995); Inoue, M. et al., Chem. Senses, 26: 915 (2001)).

[2] = test system: chorda tympani (CT) nerve of T1R3 knock-out and B6 wild-type mice; experiment: Whole-nerve recording from the chorda tympani (CT) nerve on lingual application of tastants; settings: integrated response normalized to 100 mM NH4Cl
Procedure: as §1, §2, §3

[3] = test system: T1R3 knock-out, B6 wild-type and 129 wild-type mice; experiment: 48-hour two-bottle preference test (tastant versus water); settings: for Behavioral (preference) response of T1R3 knock-out mice compared with B6 wild-type mice: 48 h two-bottle test, concentrations eliciting preference in B6 wild-type; for Preference responses compared among B6, 129 and T1R3 knock-out mice: B6 (taster), 129 (nontaster), T1R3 knock-out (null); for Response of T1R3 knock-out mice compared with 129 mice: two-bottle preference
Procedure: Behavioral tests were conducted to examine the responses of T1R3 knock-out mice to tastants representing five taste qualities (sweet, bitter, salty, sour and umami). Mice of both sexes aged between 2 and 12 months were used. Age- and gender-matched mice were used in the three genotype groups, and littermates were used in the knock-out and B6 wild-type control groups. The two-bottle preference test consisted of giving the mice two bottles, one containing deionized water and the other a tastant solution, for 48 hours. The bottle positions were swapped after 24 hours to eliminate position effects. The ratio of tastant to total liquid consumed was measured and compared between groups using known methods (see, e.g., Wong, G. T. et al., Nature, 381: 796 (1996).
The tastants were presented at two-fold or three-fold ascending concentrations. The mice were allowed a 7-day recovery period with deionized water between tastants. The order of tastants for Group 1 was sucrose, quinine, SC45647, MSG, acesulfame K, sucralose and glucose. The order of tastants for Group 2 was NaCl, HCl and maltose. All tastants were of the highest purity available. MSG solutions also contained 10 micromolar amiloride to block the salty taste of the Na+. Tastant concentrations are listed below in order of presentation:
as §1

Structure (SMILES)	GL responses of T1R3 knock-out mice compared with B6 wild-type mice [1]	CT responses of T1R3 knock-out mice compared with B6 wild-type mice [2]	Behavioral (preference) response of T1R3 knock-out mice compared with B6 wild-type mice [3]	also measured
[Cl-].[Na+] [NaCl]	unchanged			
C=C[C@H]1CN2CC[C@H]1C[C@H]2[C@H](O)c1ccnc2ccc(OC)cc12.C=C[C@H]1CN2CC[C@H]1C[C@H]2[C@H](O)c1ccnc2ccc(OC)cc12.O=S(=O)(O)O [Quinine, quinine sulfate]	unchanged			
O=C(CO)[C@@H](O)[C@H](O)[C@H](O)CO [fructose]		diminished; also recorded: moderately or markedly diminished		
C[C@H](NC(=NCC(=O)O)Nc1ccc(C#N)cc1)c1ccccc1 [SC45647]	Significant differences; also recorded: reduced	markedly diminished; also recorded: near-zero	indifference	Preference responses compared among B6, 129 and T1R3 knock-out mice [3]: strongest in B6 mice, weakest in T1R3 knock-out mice, and intermediate in 129 mice; GL nerve responses of B6 wild-type mice compared with their CT responses [1]: much lower
OC[C@@H](O)[C@@H](O)[C@H](O)[C@@H](O)CO [sorbitol]		diminished; also recorded: moderately or markedly diminished		
OC[C@H]1O[C@@](CO)(O[C@H]2O[C@H](CO)[C@@H](O)[C@H](O)[C@H]2O)[C@@H](O)[C@@H]1O [Sucrose, sucrose]	Significant differences; also recorded: reduced	markedly diminished; also recorded: moderately or markedly diminished	markedly diminished; also recorded: indifference	Behavior of T1R3 knock-out mice at high tastant concentration ([3]; concentrations 5- to 10-fold those needed to elicit a strong preference in B6 wild-type mice): preferred; Response of T1R3 knock-out mice compared with 129 mice [3]: weaker; GL nerve responses of B6 wild-type mice compared with their CT responses [1]: much lower
N[C@@H](CCC(=O)O)C(=O)[O-].[Na+] [MSG, monosodium glutamate]	no differences	slightly diminished; also recorded: diminished only at the highest concentration tested	moderately diminished	Behavioral (preference) response of T1R3 knock-out mice compared with B6 wild-type mice ([3]; listed as monosodium glutamate (MSG)): reduced response; Preference of T1R3 knock-out mice compared with B6 wild-type mice ([3]; concentrations between 30 and 300 mM): reduced, but not abolished
CC1=CC(=O)[N-]S(=O)(=O)O1.[K+] [AceK, acesulfame K]	Significant differences; also recorded: reduced	markedly diminished; also recorded: near-zero	indifference	Preference responses compared among B6, 129 and T1R3 knock-out mice [3]: strongest in B6 mice, weakest in T1R3 knock-out mice, and intermediate in 129 mice; GL nerve responses of B6 wild-type mice compared with their CT responses [1]: lower at concentrations below 100 mM, but higher at 300 mM; Concentration at which the reduced GL response of T1R3 knock-out mice was evident ([1]; T1R3 knock-out vs B6 wild-type): 30 to 300 mM
N[C@H](Cc1c[nH]c2ccccc12)C(=O)O [D-tryptophan]		nearly abolished; also recorded: near-zero		
Cl [HCl]	unchanged			
O=C1NS(=O)(=O)c2ccccc21 [saccharin]		near-zero		
O=C[C@H](O)[C@@H](O)[C@H](O)[C@H](O)CO [Glucose, glucose]		not significantly diminished	reduced response; also recorded: slightly reduced	Response of T1R3 knock-out mice compared with 129 mice [3]: did not differ
OC[C@H]1O[C@H](O[C@]2(CCl)O[C@H](CCl)[C@@H](O)[C@@H]2O)[C@H](O)[C@@H](O)[C@H]1Cl [Sucralose, sucralose]		near-zero	indifference	Preference responses compared among B6, 129 and T1R3 knock-out mice [3]: strongest in B6 mice, weakest in T1R3 knock-out mice, and intermediate in 129 mice
OC[C@H]1O[C@H](O[C@H]2[C@H](O)[C@@H](O)C(O)O[C@@H]2CO)[C@H](O)[C@@H](O)[C@@H]1O (mixture of isomers) [Maltose, maltose]		significant differences; also recorded: diminished; also recorded: moderately or markedly diminished	no difference	Response of T1R3 knock-out mice compared with 129 mice [3]: did not differ
